Measurements reported in PMC10975527 (Viruses, 2024).
≈ marks a conversion by molar mass, not a printed value. Like-named read-outs stand apart in the source and are kept apart here.

Assays:
HBV [1] = assay: HBV-infected HepG2-hNTCP antiviral assay; type: cell-based; details: Hepatitis B virus, genotype D
[2] = mouse, in vivo
HBV pgRNA and preS/S RNA [3] = assay: Kinetics of HBV RNA degradation in HepAD38 cells (Northern blot); type: cell-based, hepatitis B virus; details: HepAD38, GLS4 + AB-161 (100 nM)
recombinant human PAPD7 = target: T1, recombinant human PAPD7 (Homo sapiens, UniProt Q5XG87); assay: PAPD7 ATP depletion assay; type: biochemical; details: 12.5 nM enzyme, 750 nM ATP, 3 h, mean of 3 experiments; read-out: IC50, PAPD7-mediated incorporation of ATP
T1 construct: made in house
T1 sequence (Q5XG87 226-558): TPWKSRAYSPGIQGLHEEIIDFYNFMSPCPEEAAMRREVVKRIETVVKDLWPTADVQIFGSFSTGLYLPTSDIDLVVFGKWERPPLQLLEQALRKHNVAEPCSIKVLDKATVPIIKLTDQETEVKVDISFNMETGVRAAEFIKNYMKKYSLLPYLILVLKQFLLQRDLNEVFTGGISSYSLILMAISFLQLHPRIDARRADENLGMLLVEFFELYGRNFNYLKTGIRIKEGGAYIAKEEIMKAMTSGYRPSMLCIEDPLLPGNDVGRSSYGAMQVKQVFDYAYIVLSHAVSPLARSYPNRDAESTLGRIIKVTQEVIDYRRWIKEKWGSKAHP

HIV = assay: Antiviral selectivity panel: HIV; type: cell-based; details: Human immunodeficiency virus 1; CEM-22 (human T lymphoblast)
HCV = assay: Antiviral selectivity panel: HCV; type: cell-based; details: Hepatitis C virus; Huh-7 (human liver)
HBV (AAV-HBV) = assay: AAV-HBV mouse model, serum HBsAg; details: AAV-HBV mice; for mean reduction of serum HBsAg compared to pre-dose baseline: 14 days
HBV [4] = assay: Effective concentration mediating 90% inhibition (EC90), system not given; type: cell-based; details: Hepatitis B virus; used for comparison with unbound concentrations; cell system not stated
HBV pgRNA and preS/S RNA [5] = assay: Northern blot of intracellular HBV RNA in HepG2.2.15 cells; type: cell-based; details: Hepatitis B virus, HepG2.2.15, 48 h
[6] = tested on: panel of RNA and DNA viruses; assay: Antiviral selectivity against a panel of RNA and DNA viruses (summary); type: cell-based
[7] = tested on: HBsAg expressed from integrated HBV; assay: HBsAg from integrated HBV in PLC/PRF/5 cells; type: cell-based; details: Hepatitis B virus, PLC-PRF-5, read-out: HBsAg EC50
WNV = assay: Antiviral selectivity panel: WNV; type: cell-based; details: West Nile virus, Vero 76, in Primates; Vero76 (monkey kidney)
in vitro [8] = details: monkey
Wild-type HBV = assay: HBV polymerase variant phenotyping in Huh-7: wild-type; details: Hepatitis B virus
DENV2 = assay: Antiviral selectivity panel: DENV2; type: cell-based, dengue virus type 2; details: Dengue virus, DENV2, BHK-21, in Mesocricetus auratus; BHK21 (hamster kidney)
in vitro [9] = type: in vitro ADME; details: dog, plasma
in vitro [10] = type: in vitro ADME; details: human
[11] = Tolerability in AAV-HBV mice; details: once-daily dosing for 14 days
[12] = Cytotoxicity in HepG2-hNTCP cells; type: cell-based; details: human, HBV-infected HepG2-hNTCP-C4 cells
HBV [13] = assay: HBV-infected primary human hepatocytes (PHH) antiviral assay; type: cell-based; details: Hepatitis B virus, Hepatocyte, genotype D
in vitro [14] = type: in vitro ADME; details: mouse
recombinant human PAPD5 = target: T2, recombinant human PAPD5 (Homo sapiens, UniProt Q8NDF8); assay: PAPD5 ATP depletion assay; type: biochemical; details: 12.5 nM enzyme, 750 nM ATP, 3 h, mean of 3 experiments; read-out: IC50, PAPD5-mediated incorporation of ATP
T2 construct: made in house
T2 sequence (Q8NDF8 106-438 limits assumed): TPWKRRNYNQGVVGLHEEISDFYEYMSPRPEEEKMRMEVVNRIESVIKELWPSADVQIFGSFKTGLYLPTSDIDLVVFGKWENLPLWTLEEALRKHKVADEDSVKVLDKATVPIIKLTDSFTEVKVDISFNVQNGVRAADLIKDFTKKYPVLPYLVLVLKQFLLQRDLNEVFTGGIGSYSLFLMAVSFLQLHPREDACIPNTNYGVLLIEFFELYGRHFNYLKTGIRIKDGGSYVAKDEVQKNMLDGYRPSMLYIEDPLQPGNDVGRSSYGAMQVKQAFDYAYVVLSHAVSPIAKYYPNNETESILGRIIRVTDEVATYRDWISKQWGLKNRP

HSV-1/HSV-2 = assay: Antiviral selectivity panel: HSV-1/HSV-2; type: cell-based, herpes simplex virus-1/herpes simplex virus-2; details: MRC5; MRC-5 (human lung)
HRV = assay: Antiviral selectivity panel: HRV; type: cell-based; details: Human rhinovirus sp., HEp-2; HEp2 (human epithelial)
in vitro [15] = type: in vitro ADME; details: monkey, plasma
in vitro [16] = type: in vitro ADME; details: rat, plasma
in vitro [17] = details: bovine
[18] = male, C57BL/6J, mouse, in vivo, 24 h
[19] = read-out: HBV RNA EC50 (converted)
[20] = read-out: HBeAg EC50 (converted)

COc1cc(OC(F)F)c2nc3c(n2c1)C[C@@H](C(C)(C)C)c1cc(C(=O)O)c(=O)[nH]c1-3 [AB-161]
EC50 (HBV [1]; [19]): 30.1 nM | EC50 (HBV [1]; [20]): 20.9 nM | EC50 (HBV [1]; read-out: HBsAg EC50): 25.3 ± 10.9 nM | liver and kidney function markers (ALT, creatinine) [2]: no significant changes | levels of pgRNA and preS/S RNA (HBV pgRNA and preS/S RNA [3]; 8 h and 16 h post-treatment): substantially reduced | migration of pgRNA and preS/S RNA (shortening of the viral transcripts) (HBV pgRNA and preS/S RNA [3]; starting at 2 h post-treatment): faster migration | CC50 (Huh-7 cells; HBV transfected Huh-7, genotypes A–H): > 50000 nM | CC50 (Huh-7 cells; Huh-7, HBV genotype A): > 50000 nM | CC50 (Huh-7 cells; Huh-7, HBV genotype C): > 50000 nM | CC50 (Huh-7 cells; Huh-7, HBV genotype D): > 50000 nM | CC50 (Huh-7 cells; Huh-7, HBV genotype E): > 50000 nM | CC50 (Huh-7 cells; Huh-7, HBV genotype F): > 50000 nM | CC50 (Huh-7 cells; Huh-7, HBV genotype H-1): > 50000 nM | CC50 (Huh-7 cells; Huh-7, HBV genotype H-2): > 50000 nM | IC50 (recombinant human PAPD7): 1100 nM | EC50 (HIV): > 30000 nM | EC50 (HCV): > 30000 nM | mean reduction of serum HBsAg compared to pre-dose baseline (HBV (AAV-HBV); 0.3 mg/kg oral QD): 0.13 log10 | mean reduction of serum HBsAg compared to pre-dose baseline (HBV (AAV-HBV); 1 mg/kg oral QD): 0.34 log10 | mean reduction of serum HBsAg compared to pre-dose baseline (HBV (AAV-HBV); 10 mg/kg oral QD): 0.71 log10 | mean reduction of serum HBsAg compared to pre-dose baseline (HBV (AAV-HBV); 30 mg/kg oral QD): 0.94 log10 | earliest time at which inhibition of serum HBsAg was observed (HBV (AAV-HBV); after initiation of dosing): 4 days | mean maximal reduction of serum HBsAg compared to pre-dose baseline (HBV (AAV-HBV); oral QD 14 days, dose range 0.3 to 30 mg/kg): 0.94 ± 0.56 log10 | EC90 (HBV [4]): 0.0128 µg/mL (≈ 0.0295 µM) | EC50 (HBV pgRNA and preS/S RNA [5]; read-out: EC50, steady state level of pgRNA (3.5 kb)): 6.9 to 21 nM | EC50 (HBV pgRNA and preS/S RNA [5]; read-out: EC50, steady state level of preS/S RNA (2.4/2.1 kb)): 2.3 to 6.9 nM | selectivity for HBV ([6]; HBV vs panel of RNA and DNA viruses): > 10,000 fold | activity against a panel of RNA and DNA viruses ([6]; all ten viruses, up to the highest concentration tested at 30 μM): inactive | EC50 [7]: 5.9 ± 2.5 nM | EC50 (WNV): > 30000 nM | CC50 (in vitro [8]): > 30000 nM | EC50 (Wild-type HBV; Huh-7, read-out: EC50 (HBsAg)): 1.9 to 4.9 nM | EC50 (Wild-type HBV; Huh-7, read-out: HBsAg, EC50): 4.9 nM | EC50 (DENV2): > 30000 nM | fraction unbound at 6 h, 500 ng/mL (in vitro [9]): 0.047 | plasma protein binding, bound (in vitro [10]; 6 h, 500 ng/mL): 95% | fraction unbound at 6 h, 500 ng/mL (in vitro [10]; plasma, plasma protein binding, bound): 0.049 | tolerability [11]: well-tolerated | CC50 [12]: > 10000 nM | CC50 (HEp2 (human epithelial)): > 30000 nM | EC50 (HBV [13]; [19]): 9.6 nM | EC50 (HBV [13]; [20]): 11.9 nM | EC50 (HBV [13]; read-out: HBsAg EC50): 8.5 ± 4.7 nM | AB-161 estimated to be free (in vitro [14]; 6 h, 500 ng/mL): 2.4% | fraction unbound at 6 h, 500 ng/mL (in vitro [14]; plasma): 0.024 | fraction-unbound factor (in vitro [14]; plasma, 6 h, 500 ng/mL): 0.024 | IC50 (recombinant human PAPD5): 850 nM | EC50 (HSV-1/HSV-2): > 30000 nM | EC50 (HRV): > 30000 nM | fraction unbound at 6 h, 500 ng/mL (in vitro [15]): 0.02 | fraction unbound at 6 h, 500 ng/mL (in vitro [16]): 0.056 | CC50 (MRC-5 (human lung)): > 30000 nM | CC50 (in vitro [17]): > 30000 nM | fraction unbound AB-161 in plasma (C24h) below its EC90 [18]: at least 1 log10
